Source: ChEMBL document CHEMBL4219266, “Identification of quinone analogues as potential inhibitors of picornavirus 3C protease in vitro” (Bioorg Med Chem Lett, 2018)
pIC50: −log10 of the molar value. The source made the active and inactive calls. The calls are words filed in the database; no cut-off is given here.

Assays:
Genome polyprotein [1] = molecular target: Genome polyprotein (Coxsackievirus B3 (strain Nancy), UniProt P03313); experiment: Inhibition of human coxsackievirus B3 protease 3C expressed in Escherichia coli (BL21) using fluorogenic-Dabcyl-KEALFQGPPQFE-Edans as substrate after 1 hr by FRET assay
[2] = molecular target: Genome polyprotein (Coxsackievirus B3 (strain Nancy)) (UniProt P03313); experiment: Inhibition of human coxsackievirus B3 protease 3C expressed in Escherichia coli (BL21) at 40 uM using fluorogenic-Dabcyl-KEALFQGPPQFE-Edans as substrate after 1 hr by FRET assay
Genome polyprotein [3] = molecular target: Genome polyprotein (rhinovirus B14, UniProt P03303); experiment: Inhibition of recombinant human rhinovirus protease 3C using fluorogenic-Dabcyl-KTSAVLQSGFRKME-Edan as substrate after 5 mins by FRET assay; set-up: species or system Human rhinovirus sp.
[4] = molecular target: Genome polyprotein (rhinovirus B14) (UniProt P03303); experiment: Inhibition of human rhinovirus protease 3C catalytic activity assessed as suppression of target protein cleavage at 50 uM after 30 mins by SDS-PAGE analysis; settings: Human rhinovirus sp.
[5] = molecular target: Genome polyprotein (rhinovirus B14) (UniProt P03303); experiment: Inhibition of human rhinovirus protease 3C catalytic activity assessed as suppression of target protein cleavage at 5 uM after 30 mins by SDS-PAGE analysis; settings: Human rhinovirus sp.

Chain of Genome polyprotein (Coxsackievirus B3 (strain Nancy), UniProt P03313) (P03313 1541-1723 limits assumed): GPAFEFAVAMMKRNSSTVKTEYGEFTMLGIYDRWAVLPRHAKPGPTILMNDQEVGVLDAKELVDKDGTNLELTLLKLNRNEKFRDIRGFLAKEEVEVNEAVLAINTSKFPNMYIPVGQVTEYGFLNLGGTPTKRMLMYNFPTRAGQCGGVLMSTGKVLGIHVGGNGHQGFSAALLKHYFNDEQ
Chain of Genome polyprotein (Coxsackievirus B3 (strain Nancy)) (P03313 whole entry): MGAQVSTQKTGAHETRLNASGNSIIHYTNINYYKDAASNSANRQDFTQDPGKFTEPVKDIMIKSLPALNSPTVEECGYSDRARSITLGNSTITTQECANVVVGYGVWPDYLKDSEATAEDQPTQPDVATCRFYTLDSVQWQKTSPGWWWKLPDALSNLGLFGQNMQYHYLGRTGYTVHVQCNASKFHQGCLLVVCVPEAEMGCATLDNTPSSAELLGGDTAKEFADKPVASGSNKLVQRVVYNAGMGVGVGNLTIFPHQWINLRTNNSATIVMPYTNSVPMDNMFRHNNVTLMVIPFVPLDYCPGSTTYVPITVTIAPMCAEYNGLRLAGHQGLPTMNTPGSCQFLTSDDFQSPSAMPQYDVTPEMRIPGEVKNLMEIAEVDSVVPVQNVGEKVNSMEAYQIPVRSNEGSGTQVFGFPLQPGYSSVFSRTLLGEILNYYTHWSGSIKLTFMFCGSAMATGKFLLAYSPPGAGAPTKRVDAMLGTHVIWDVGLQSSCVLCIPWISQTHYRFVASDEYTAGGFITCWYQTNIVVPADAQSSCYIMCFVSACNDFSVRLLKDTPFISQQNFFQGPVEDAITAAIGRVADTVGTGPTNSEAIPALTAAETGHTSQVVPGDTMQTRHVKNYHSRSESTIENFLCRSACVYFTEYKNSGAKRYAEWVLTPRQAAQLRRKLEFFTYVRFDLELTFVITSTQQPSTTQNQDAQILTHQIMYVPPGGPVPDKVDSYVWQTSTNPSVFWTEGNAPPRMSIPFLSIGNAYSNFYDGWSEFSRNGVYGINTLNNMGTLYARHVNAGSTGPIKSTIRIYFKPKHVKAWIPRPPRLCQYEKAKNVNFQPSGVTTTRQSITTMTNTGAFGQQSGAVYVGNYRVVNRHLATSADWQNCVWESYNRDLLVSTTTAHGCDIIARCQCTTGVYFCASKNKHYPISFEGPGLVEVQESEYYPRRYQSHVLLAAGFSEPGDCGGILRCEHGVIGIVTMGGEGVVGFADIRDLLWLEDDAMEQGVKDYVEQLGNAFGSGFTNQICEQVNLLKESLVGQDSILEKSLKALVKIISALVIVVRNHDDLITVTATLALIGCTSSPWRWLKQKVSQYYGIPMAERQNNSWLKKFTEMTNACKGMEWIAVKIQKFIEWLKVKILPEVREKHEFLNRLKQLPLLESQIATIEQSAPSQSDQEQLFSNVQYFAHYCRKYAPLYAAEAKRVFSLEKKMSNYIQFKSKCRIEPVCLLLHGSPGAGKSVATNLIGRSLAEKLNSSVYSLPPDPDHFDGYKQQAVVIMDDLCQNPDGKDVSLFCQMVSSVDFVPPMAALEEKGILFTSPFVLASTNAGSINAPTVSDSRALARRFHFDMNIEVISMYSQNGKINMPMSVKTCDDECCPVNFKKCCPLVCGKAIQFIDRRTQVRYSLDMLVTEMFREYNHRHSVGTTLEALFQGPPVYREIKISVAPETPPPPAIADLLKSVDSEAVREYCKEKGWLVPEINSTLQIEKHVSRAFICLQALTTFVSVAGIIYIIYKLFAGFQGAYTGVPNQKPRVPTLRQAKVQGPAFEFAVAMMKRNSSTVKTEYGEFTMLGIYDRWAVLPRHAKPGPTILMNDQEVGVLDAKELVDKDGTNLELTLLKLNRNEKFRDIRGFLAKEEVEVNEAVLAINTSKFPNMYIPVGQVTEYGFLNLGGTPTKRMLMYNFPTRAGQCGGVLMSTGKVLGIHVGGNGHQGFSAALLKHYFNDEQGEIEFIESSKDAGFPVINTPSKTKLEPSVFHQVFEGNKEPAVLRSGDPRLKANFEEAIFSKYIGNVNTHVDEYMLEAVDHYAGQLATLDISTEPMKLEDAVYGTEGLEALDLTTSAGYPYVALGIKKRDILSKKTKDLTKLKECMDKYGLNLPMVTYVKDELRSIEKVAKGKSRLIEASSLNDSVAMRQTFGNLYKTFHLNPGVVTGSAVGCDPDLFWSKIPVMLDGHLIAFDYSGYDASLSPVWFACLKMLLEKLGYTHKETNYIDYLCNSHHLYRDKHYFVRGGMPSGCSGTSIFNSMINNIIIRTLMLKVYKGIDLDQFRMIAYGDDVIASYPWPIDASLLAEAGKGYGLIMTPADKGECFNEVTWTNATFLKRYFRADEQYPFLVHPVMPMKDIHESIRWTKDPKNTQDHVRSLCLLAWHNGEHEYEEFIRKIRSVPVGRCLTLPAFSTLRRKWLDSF
Chain of Genome polyprotein (rhinovirus B14) (P03303 whole entry): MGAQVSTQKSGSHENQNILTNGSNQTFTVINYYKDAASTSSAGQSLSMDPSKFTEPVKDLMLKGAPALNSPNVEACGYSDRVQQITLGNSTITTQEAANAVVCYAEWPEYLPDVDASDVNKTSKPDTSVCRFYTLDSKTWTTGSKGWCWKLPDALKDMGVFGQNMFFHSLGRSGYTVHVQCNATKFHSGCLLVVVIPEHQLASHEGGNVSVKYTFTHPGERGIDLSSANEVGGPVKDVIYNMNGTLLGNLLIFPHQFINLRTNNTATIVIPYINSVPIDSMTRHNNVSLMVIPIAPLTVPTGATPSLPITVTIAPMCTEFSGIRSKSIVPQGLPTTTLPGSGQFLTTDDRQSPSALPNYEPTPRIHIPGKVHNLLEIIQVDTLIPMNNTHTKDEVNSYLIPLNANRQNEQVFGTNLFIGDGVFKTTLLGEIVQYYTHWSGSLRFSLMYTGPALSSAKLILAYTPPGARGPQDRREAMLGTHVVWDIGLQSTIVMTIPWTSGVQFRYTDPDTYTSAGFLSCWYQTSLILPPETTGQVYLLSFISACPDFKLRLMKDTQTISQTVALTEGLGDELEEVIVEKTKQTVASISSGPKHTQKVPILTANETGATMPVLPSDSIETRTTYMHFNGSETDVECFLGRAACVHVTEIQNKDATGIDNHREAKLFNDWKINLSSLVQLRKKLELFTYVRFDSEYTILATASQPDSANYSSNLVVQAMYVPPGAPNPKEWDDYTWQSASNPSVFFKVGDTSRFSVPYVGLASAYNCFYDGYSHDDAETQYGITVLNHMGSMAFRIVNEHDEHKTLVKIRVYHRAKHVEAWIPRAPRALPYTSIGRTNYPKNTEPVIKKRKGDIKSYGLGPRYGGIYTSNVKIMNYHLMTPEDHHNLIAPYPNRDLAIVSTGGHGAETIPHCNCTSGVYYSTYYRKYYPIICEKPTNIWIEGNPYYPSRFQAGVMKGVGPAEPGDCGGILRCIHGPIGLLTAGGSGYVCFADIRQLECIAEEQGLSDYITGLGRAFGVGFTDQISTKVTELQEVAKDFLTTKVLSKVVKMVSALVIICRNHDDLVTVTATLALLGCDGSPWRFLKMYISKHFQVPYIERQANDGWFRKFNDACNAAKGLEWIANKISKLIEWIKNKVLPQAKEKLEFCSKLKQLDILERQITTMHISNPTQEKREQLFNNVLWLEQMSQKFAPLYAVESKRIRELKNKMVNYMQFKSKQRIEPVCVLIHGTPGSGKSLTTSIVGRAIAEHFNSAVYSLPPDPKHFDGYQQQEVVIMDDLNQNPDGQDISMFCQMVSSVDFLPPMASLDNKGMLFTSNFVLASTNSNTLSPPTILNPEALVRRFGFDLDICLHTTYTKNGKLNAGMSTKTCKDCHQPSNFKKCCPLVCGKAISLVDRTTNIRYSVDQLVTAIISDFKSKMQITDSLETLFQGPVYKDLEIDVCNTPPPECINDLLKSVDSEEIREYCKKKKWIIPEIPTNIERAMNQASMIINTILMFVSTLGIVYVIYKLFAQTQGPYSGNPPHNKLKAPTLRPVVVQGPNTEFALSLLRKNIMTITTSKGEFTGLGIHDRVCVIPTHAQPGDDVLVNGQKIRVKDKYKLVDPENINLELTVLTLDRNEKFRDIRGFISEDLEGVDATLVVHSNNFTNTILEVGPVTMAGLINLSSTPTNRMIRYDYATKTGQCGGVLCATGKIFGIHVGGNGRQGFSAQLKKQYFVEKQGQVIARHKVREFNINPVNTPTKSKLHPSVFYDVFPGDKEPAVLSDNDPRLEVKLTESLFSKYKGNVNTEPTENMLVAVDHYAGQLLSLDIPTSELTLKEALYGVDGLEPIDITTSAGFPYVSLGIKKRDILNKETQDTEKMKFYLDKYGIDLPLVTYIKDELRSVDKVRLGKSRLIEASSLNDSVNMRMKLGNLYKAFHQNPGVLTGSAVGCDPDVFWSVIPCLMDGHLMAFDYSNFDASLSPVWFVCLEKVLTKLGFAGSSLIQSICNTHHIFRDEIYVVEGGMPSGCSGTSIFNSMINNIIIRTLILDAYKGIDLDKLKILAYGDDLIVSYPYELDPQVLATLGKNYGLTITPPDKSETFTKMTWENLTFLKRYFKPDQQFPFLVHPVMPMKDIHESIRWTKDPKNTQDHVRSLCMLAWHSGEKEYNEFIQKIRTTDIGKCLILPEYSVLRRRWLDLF
Chain of Genome polyprotein (rhinovirus B14, UniProt P03303) (P03303 1538-1719 limits assumed): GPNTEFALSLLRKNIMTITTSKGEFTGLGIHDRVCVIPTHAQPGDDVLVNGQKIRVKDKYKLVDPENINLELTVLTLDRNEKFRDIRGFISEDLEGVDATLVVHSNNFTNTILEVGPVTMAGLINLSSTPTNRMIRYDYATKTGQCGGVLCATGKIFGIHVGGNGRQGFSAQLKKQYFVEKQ

Row | SMILES | pIC50 (Genome polyprotein [1]) | inhibition [2] | also measured
1 | Cc1ccc(NC2=C(Cl)C(=O)c3nc(C)[nH]c3C2=O)cc1 | 6.08 |  | 
2 | Cc1[nH]c2ccccc2c1C1=C(Cl)C(=O)c2ncccc2C1=O | 6.14 |  | 
3 | O=C1C(Sc2ccc(Cl)cc2)=C(Sc2ccc(Cl)cc2)C(=O)c2[nH]c(-c3ccncc3)nc21 | 6.24 |  | 
4 | COC(=O)/C=C/C(=O)[C@@H](NC(=O)OC(C)(C)C)C(C)C | 5.74 | > 64% | 
5 | O=C1C(Cl)=C(Nc2cccc(Cl)c2)C(=O)c2[nH]c(-c3ccncc3)nc21 | 6.26 |  | 
6 | O=C(CCN1CCc2ccccc2CC1)c1ccc2c(c1)OCCO2 | 4.95 | > 64% | 
7 | Cc1nc2c([nH]1)C(=O)C(Cl)=C(Nc1cc(F)cc(F)c1)C2=O | 6.05 | > 64% | pIC50 (Genome polyprotein [3]): 5.08; inhibition [4]: Active
8 | COc1ccc(OC2=C(Cl)C(=O)c3ccccc3C2=O)c([N+](=O)[O-])c1 | 5.77 | > 64% | pIC50 (Genome polyprotein [3]): 6.07; inhibition [5]: Active
9 | Cc1[nH]c2ccccc2c1C1=C(O)C(=O)c2ncccc2C1=O | 5.96 |  | 
10 | CN(Cc1ccccc1)CC(C(=O)c1ccc(Cl)cc1)n1cnc2ccccc2c1=O (centres undefined) | 5.21 | > 64% | 
11 | O=C1C(Sc2ccccc2)=C(Sc2ccccc2)C(=O)c2[nH]c(-c3ccncc3)nc21 | 6.10 |  | 
12 | O=C1C(Cl)=C(Cl)C(=O)c2ncccc21 | 6.20 |  | 
13 | Cc1ccc(N/N=C/c2c(O)cc(C)oc2=O)cc1 | 5.27 | > 64% | 
14 | CC1(C)CC(=O)C2=C(C1)OC(=O)C2(Nc1ccccc1)C(F)(F)F (centres undefined) | 5.08 | > 64% | 
15 | O=C1C=CC(=O)N1c1ccc(OC(F)(F)C(F)F)c(N2C(=O)C=CC2=O)c1 | 5.92 | > 64% | 
16 | Cc1nc2c([nH]1)C(=O)C(Nc1ccc(C(F)(F)F)cc1)=C(Cl)C2=O | 6.08 |  | 
17 | O=C1C(Oc2ccc(O)cc2)=C(Oc2ccc(O)cc2)C(=O)c2ncccc21 | 5.92 |  | 
